Measurements: US11725036B2, “Modified lipidated relaxin B chain peptides and their therapeutic use” (Sanofi, priority 2018, dated 2023)
Starred links: 1 amine or outer side, 2 acyl side, 3 side chain; linkers in the order of their positions; H or OH if unused. Non-standard residues stand in square brackets, D forms with d. Residues, ends and D or L forms follow the SMILES beside them. Groups on a side chain read outwards from the residue. *: point of attachment. X5 = CCCCCCCCCCCCCCCC(=O)N[C@@H](CCC(=O)N[C@@H](CCC(=O)N[C@@H](CCC(=O)NCCCOCCOCCOCCCNC(=O)CCC(=O)NCCCOCCOCCOCCCNC(=O)CCC(=O)NCCCOCCOCCOCCCNC(=O)CCC(=O)NCCCOCCOCCOCCCN*)C(=O)O)C(=O)O)C(=O)O; X7 = CCCCCCCCCCCCCCCC(=O)N[C@@H](CCC(=O)N[C@@H](CCC(=O)N[C@@H](CCC(=O)NCCCOCCOCCOCCCNC(=O)COCC(=O)NCCCOCCOCCOCCCNC(=O)COCC(=O)NCCCOCCOCCOCCCNC(=O)COCC(=O)*)C(=O)O)C(=O)O)C(=O)O; X1 = CCCCCCCCCCCCCCCC(=O)N[C@@H](CCC(=O)N[C@@H](CCC(=O)N[C@@H](CCC(=O)NCCCOCCOCCOCCCNC(=O)CCC(=O)NCCCOCCOCCOCCCNC(=O)CCC(=O)NCCCOCCOCCOCCCN*)C(=O)O)C(=O)O)C(=O)O; X6 = CCCCCCCCCCCCCC(=O)N[C@@H](CCC(=O)N[C@@H](CCC(=O)N[C@@H](CCC(=O)NCCCOCCOCCOCCCNC(=O)CCC(=O)NCCCOCCOCCOCCCNC(=O)CCC(=O)NCCCOCCOCCOCCCN*)C(=O)O)C(=O)O)C(=O)O; X4 = CCCCCCCCCCCCCCCCCC(=O)N[C@@H](CCC(=O)N[C@@H](CCC(=O)N[C@@H](CCC(=O)NCCCOCCOCCOCCCNC(=O)CCC(=O)NCCCOCCOCCOCCCN*)C(=O)O)C(=O)O)C(=O)O; Suc = O=C(CCC(=O)[*:2])[*:1]; αMeK = C[C@](N)(CCCCN)C(=O)O; Aib = CC(C)(N)C(=O)O

Biological target: T1, RXFP1 (Homo sapiens, UniProt Q9HBX9)
T1 construct: OVCAR5 cells expressing endogenous RXFP1; endogenous in cells; host or cells: OVCAR5
T1 sequence (Q9HBX9 1-757): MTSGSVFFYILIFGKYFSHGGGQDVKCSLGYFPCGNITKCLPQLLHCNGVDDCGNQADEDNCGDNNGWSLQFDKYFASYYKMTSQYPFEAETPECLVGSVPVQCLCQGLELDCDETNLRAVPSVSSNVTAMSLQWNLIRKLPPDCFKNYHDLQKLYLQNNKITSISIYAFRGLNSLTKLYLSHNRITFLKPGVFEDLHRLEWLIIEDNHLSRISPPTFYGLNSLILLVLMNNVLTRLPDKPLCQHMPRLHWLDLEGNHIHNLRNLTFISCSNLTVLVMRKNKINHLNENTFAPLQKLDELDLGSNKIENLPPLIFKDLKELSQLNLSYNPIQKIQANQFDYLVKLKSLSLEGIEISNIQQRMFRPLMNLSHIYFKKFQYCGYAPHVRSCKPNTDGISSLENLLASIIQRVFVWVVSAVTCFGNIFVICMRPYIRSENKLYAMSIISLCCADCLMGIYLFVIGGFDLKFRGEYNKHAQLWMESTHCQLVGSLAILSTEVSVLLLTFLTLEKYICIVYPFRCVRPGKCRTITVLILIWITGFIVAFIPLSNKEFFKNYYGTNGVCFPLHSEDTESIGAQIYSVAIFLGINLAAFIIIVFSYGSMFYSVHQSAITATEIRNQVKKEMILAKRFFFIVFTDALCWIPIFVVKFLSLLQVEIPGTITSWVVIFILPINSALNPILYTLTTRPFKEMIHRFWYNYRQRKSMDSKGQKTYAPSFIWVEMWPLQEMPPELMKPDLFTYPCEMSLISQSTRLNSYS
Experiment: OVCAR5 cAMP assay (HTRF)
Type: cell-based
Conditions: for EC50: OVCAR 5 cells expressing endogenous RXFP1, cAMP readout; for Emax: OVCAR 5 cells, maximal cAMP relative to H2-relaxin
Outline: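 Peptide agonism measured as intracellular cAMP (HTRF) after 30 min at 37° C in serum-free medium, following 40 min 1 mM IBMX preincubation of OVCAR5 cells. Nonlinear regression gave EC50; Emax % = 100 × compound maximal cAMP / H2-relaxin maximal cAMP.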

EC50	Emax	Compound
0.14 nM	90%	CCCCCCCCCCCCCCCCCC(=O)N[C@@H](CCC(=O)N[C@@H](CCC(=O)N[C@@H](CCC(=O)NCCCOCCOCCOCCCNC(=O)CCC(=O)NCCCOCCOCCOCCCNC(=O)CCC(=O)NCCCC[C@H](NC(=O)CNC(=O)[C@H](CCC(=O)O)NC(=O)C(C)(C)NC(=O)C(C)(C)NC(=O)[C@@H](NC(=O)[C@H](CCCCNC(C)=O)NC(=O)[C@H](C)NC(=O)[C@H](CCCNC(=N)N)NC(=O)[C@@H](NC(=O)[C@H](CCCCN)NC(=O)[C@H](CCC(=O)O)NC(=O)[C@H](CCCNC(=N)N)NC(=O)CNC(=O)[C@H](CCC(=O)O)NC(=O)[C@H](CC(C)C)NC(C)=O)C(C)C)[C@@H](C)CC)C(=O)N[C@@H](CO)C(=O)N[C@H](C(=O)N[C@@H](Cc1ccccc1)C(=O)N[C@@H](CO)C(=O)N[C@@](C)(CCCCN)C(=O)N[C@@H](CCCNC(=N)N)C(=O)N[C@@H](C)C(=O)N[C@@H](CCCCNC(C)=O)C(N)=O)[C@@H](C)O)C(=O)O)C(=O)O)C(=O)O [compound 34] (Ac-LEGREKVRAK(Ac)I[Aib][Aib]EGK([Suc-X4])STFS[αMeK]RAK(Ac)-NH2)
0.18 nM	96%	CCCCCCCCCCCCCCCC(=O)N[C@@H](CCC(=O)N[C@@H](CCC(=O)N[C@@H](CCC(=O)NCCCOCCOCCOCCCNC(=O)CCC(=O)NCCCOCCOCCOCCCNC(=O)CCC(=O)NCCCOCCOCCOCCCNC(=O)CCC(=O)NCCCC[C@H](NC(=O)CNC(=O)[C@H](CCC(=O)O)NC(=O)C(C)(C)NC(=O)C(C)(C)NC(=O)[C@@H](NC(=O)[C@H](CCCCNC(C)=O)NC(=O)[C@H](C)NC(=O)[C@H](CCCNC(=N)N)NC(=O)[C@@H](NC(=O)[C@H](CCCNC(=N)N)NC(=O)[C@H](CCC(=O)O)NC(=O)[C@H](CCCNC(=N)N)NC(=O)CNC(=O)[C@H](CCC(=O)O)NC(=O)[C@H](CC(C)C)NC(C)=O)C(C)C)[C@@H](C)CC)C(=O)N[C@@H](CO)C(=O)N[C@H](C(=O)N[C@@H](Cc1ccccc1)C(=O)N[C@@H](CO)C(=O)NC(C)(C)C(=O)N[C@@H](CCCNC(=N)N)C(=O)N[C@@H](CCCNC(=N)N)C(=O)N[C@@H](CCCCNC(C)=O)C(N)=O)[C@@H](C)O)C(=O)O)C(=O)O)C(=O)O [compound 76] (Ac-LEGRERVRAK(Ac)I[Aib][Aib]EGK([Suc-X1])STFS[Aib]RRK(Ac)-NH2)
	93%	CCCCCCCCCCCCCCCC(=O)N[C@@H](CCC(=O)N[C@@H](CCC(=O)N[C@@H](CCC(=O)NCCCOCCOCCOCCCNC(=O)CCC(=O)NCCCOCCOCCOCCCNC(=O)CCC(=O)NCCCOCCOCCOCCCNC(=O)CCC(=O)NCCCC[C@H](NC(=O)CNC(=O)[C@H](CCC(=O)O)NC(=O)C(C)(C)NC(=O)C(C)(C)NC(=O)[C@@H](NC(=O)[C@H](CCCCNC(C)=O)NC(=O)[C@H](C)NC(=O)[C@H](CCCNC(=N)N)NC(=O)[C@@H](NC(=O)[C@H](CCCCN)NC(=O)[C@H](CCC(=O)O)NC(=O)[C@H](CCCNC(=N)N)NC(=O)CNC(=O)[C@H](CCC(=O)O)NC(=O)[C@H](CC(C)C)NC(C)=O)C(C)C)[C@@H](C)CC)C(=O)N[C@@H](CO)C(=O)N[C@H](C(=O)N[C@@H](Cc1c[nH]c2ccccc12)C(=O)N[C@@H](CCCCNC(C)=O)C(=O)NC(C)(C)C(=O)N[C@@H](CCCNC(=N)N)C(=O)N[C@@H](C)C(=O)N[C@@H](CCCCNC(C)=O)C(N)=O)[C@@H](C)O)C(=O)O)C(=O)O)C(=O)O [compound 66] (Ac-LEGREKVRAK(Ac)I[Aib][Aib]EGK([Suc-X1])STWK(Ac)[Aib]RAK(Ac)-NH2)

More lines, now with the values behind:

Compound	EC50	Emax
CCCCCCCCCCCCCCCC(=O)N[C@@H](CCC(=O)N[C@@H](CCC(=O)N[C@@H](CCC(=O)NCCCOCCOCCOCCCNC(=O)CCC(=O)NCCCOCCOCCOCCCNC(=O)CCC(=O)NCCCOCCOCCOCCCNC(=O)CCC(=O)NCCCOCCOCCOCCCNC(=O)CCC(=O)NCCCC[C@H](NC(=O)CNC(=O)[C@H](CCC(=O)O)NC(=O)C(C)(C)NC(=O)C(C)(C)NC(=O)[C@@H](NC(=O)[C@H](CCCCNC(C)=O)NC(=O)[C@H](C)NC(=O)[C@H](CCCNC(=N)N)NC(=O)[C@@H](NC(=O)[C@H](CCCCN)NC(=O)[C@H](CCC(=O)O)NC(=O)[C@H](CCCNC(=N)N)NC(=O)CNC(=O)[C@H](CCC(=O)O)NC(=O)[C@H](CC(C)C)NC(C)=O)C(C)C)[C@@H](C)CC)C(=O)N[C@@H](CO)C(=O)N[C@H](C(=O)N[C@@H](Cc1ccccc1)C(=O)N[C@@H](CO)C(=O)N[C@@](C)(CCCCN)C(=O)N[C@@H](CCCNC(=N)N)C(=O)N[C@@H](C)C(=O)N[C@@H](CCCCNC(C)=O)C(N)=O)[C@@H](C)O)C(=O)O)C(=O)O)C(=O)O [compound 78] (Ac-LEGREKVRAK(Ac)I[Aib][Aib]EGK([Suc-X5])STFS[αMeK]RAK(Ac)-NH2)	0.18 nM	99%
CCCCCCCCCCCCCCCC(=O)N[C@@H](CCC(=O)N[C@@H](CCC(=O)N[C@@H](CCC(=O)NCCCOCCOCCOCCCNC(=O)COCC(=O)NCCCOCCOCCOCCCNC(=O)COCC(=O)NCCCOCCOCCOCCCNC(=O)COCC(=O)NCCCC[C@H](NC(=O)CNC(=O)[C@H](CCC(=O)O)NC(=O)C(C)(C)NC(=O)C(C)(C)NC(=O)[C@@H](NC(=O)[C@H](CCCCNC(C)=O)NC(=O)[C@H](C)NC(=O)[C@H](CCCNC(=N)N)NC(=O)[C@@H](NC(=O)[C@H](CCCCN)NC(=O)[C@H](CCC(=O)O)NC(=O)[C@H](CCCNC(=N)N)NC(=O)CNC(=O)[C@H](CCC(=O)O)NC(=O)[C@H](CC(C)C)NC(C)=O)C(C)C)[C@@H](C)CC)C(=O)N[C@@H](CO)C(=O)N[C@H](C(=O)N[C@@H](Cc1ccccc1)C(=O)N[C@@H](CO)C(=O)N[C@@](C)(CCCCN)C(=O)N[C@@H](CCCNC(=N)N)C(=O)N[C@@H](C)C(=O)N[C@@H](CCCCNC(C)=O)C(N)=O)[C@@H](C)O)C(=O)O)C(=O)O)C(=O)O [compound 22] (Ac-LEGREKVRAK(Ac)I[Aib][Aib]EGK(X7)STFS[αMeK]RAK(Ac)-NH2)	1 nM	92%
CCCCCCCCCCCCCC(=O)N[C@@H](CCC(=O)N[C@@H](CCC(=O)N[C@@H](CCC(=O)NCCCOCCOCCOCCCNC(=O)CCC(=O)NCCCOCCOCCOCCCNC(=O)CCC(=O)NCCCOCCOCCOCCCNC(=O)CCC(=O)NCCCC[C@H](NC(=O)CNC(=O)[C@H](CCC(=O)O)NC(=O)C(C)(C)NC(=O)C(C)(C)NC(=O)[C@@H](NC(=O)[C@H](CCCCNC(C)=O)NC(=O)[C@H](C)NC(=O)[C@H](CCCNC(=N)N)NC(=O)[C@@H](NC(=O)[C@H](CCCCN)NC(=O)[C@H](CCC(=O)O)NC(=O)[C@H](CCCNC(=N)N)NC(=O)CNC(=O)[C@H](CCC(=O)O)NC(=O)[C@H](CC(C)C)NC(C)=O)C(C)C)[C@@H](C)CC)C(=O)N[C@@H](CO)C(=O)N[C@H](C(=O)N[C@@H](Cc1ccccc1)C(=O)N[C@@H](CO)C(=O)N[C@@](C)(CCCCN)C(=O)N[C@@H](CCCNC(=N)N)C(=O)N[C@@H](C)C(=O)N[C@@H](CCCCNC(C)=O)C(N)=O)[C@@H](C)O)C(=O)O)C(=O)O)C(=O)O [compound 95] (Ac-LEGREKVRAK(Ac)I[Aib][Aib]EGK([Suc-X6])STFS[αMeK]RAK(Ac)-NH2)	1.8 nM	91%
